# Reference: patent US20230357139A1, “SMALL MOLECULE INHIBITORS OF BACTERIAL TOXINS” (Artizan Biosciences, Inc., priority 2020, published 2023)
# pIC50: −log10 of the molar value.
# Tested on: recombinant BFT (rBFT)
# Assay: NFF-3 cleavage assay
# Assay type: biochemical, B. fragilis
# Conditions: rBFT pre-incubated with compound 30 minutes at 37° C., then NFF-3 for 24 hours; read-out: NFF3 IC50
# Description: A NFF-3 cleavage assay was used to test activity of recombinant BFT, before or after addition of various inhibitors. The NFF-3 cleavage assay was previously described by Goulas et al., PNAS, 2011, 108(5) 1856-1861, which is incorporated by reference herein in its entirety.
# Initially, recombinant BFT (rBFT) (0.25, 0.5, 1, 2, 4, 8, or 16 μg/mL) was incubated at 37° C. with the fluorogenic substrate NFF-3 (Cayman Chemical) at a concentration of 2.5 μM, 5 μM, or 10 μM. After 18 hours, fluorescence was measured in a microplate fluorimeter.
# Next, rBFT was pre-incubated with one or more test compounds at different concentrations for 30 minutes at 37° C. The rBFT-compound mixture was then added to NFF-3 and incubated for 24 hours at 37° C. Fluorescence was then measured in a microplate fluorimeter.
row,Structure (SMILES),pIC50
1,CC(C)C[C@H](C(=O)NO)N(Cc1cccnc1)S(=O)(=O)c1ccc(N)cc1 [Example 43],5.52
2,O=C(NO)[C@@H](Cc1cccs1)N(Cc1ccc(Cl)cc1)S(=O)(=O)c1ccc(O)cc1 [Example 80],6.54
3,CC(C)[C@@H](C(=O)NO)N(Cc1ccccc1)S(=O)(=O)c1c(F)c(F)c(F)c(F)c1F [Example 72],3.20
4,CC(C)C[C@H](C(=O)NO)N(Cc1cccnc1)S(=O)(=O)c1ccc(C(C)O)cc1 (stereo partly shown) [Example 37],4.30
5,CSCC[C@H](C(=O)NO)N(CCc1ccccc1)S(=O)(=O)c1ccc(O)cc1 [Example 92],7.00
6,CC[C@H](C(=O)NO)N(Cc1cccnc1)S(=O)(=O)c1ccc(O)cc1F [Example 57],6.71
7,CC(C)C[C@H](C(=O)NO)N(Cc1cccnc1)S(=O)(=O)c1cccc(C(N)=O)c1 [Example 39],4.10
8,CC(C)C[C@H](C(=O)NN)N(Cc1cccnc1)S(=O)(=O)c1ccc(O)cc1 [Example 34],4.55
9,O=C(NO)[C@@H](CC(F)F)N(Cc1cccnc1)S(=O)(=O)c1ccc(O)cc1 [Example 48],4.84
10,O=C(NO)[C@@H](Cc1cccs1)N(Cc1cccc(Cl)c1)S(=O)(=O)c1ccc(O)cc1 [Example 83],6.28
11,Cc1cccc(CN([C@H](Cc2cccs2)C(=O)NO)S(=O)(=O)c2ccc(O)cc2)c1 [Example 84],6.31
12,O=C(NO)[C@@H](Cc1cccs1)N(Cc1ccc(OC(F)(F)F)cc1)S(=O)(=O)c1ccc(O)cc1 [Example 77],6.82
13,CC(C)[C@H](C(=O)NO)N(Cc1cccnc1)S(=O)(=O)c1ccsc1 [Example 76],5.00
14,CCC[C@H](C(=O)NO)N(CCc1ccc2[nH]ccc2c1)S(=O)(=O)c1ccc(O)cc1 [Example 112],< 5.00
15,COc1ccc(S(=O)(=O)N(Cc2ccccc2)[C@H](C(=O)NO)C(C)C)cc1F [Example 65],4.55
16,COC[C@H](C(=O)NO)N(Cc1cccnc1)S(=O)(=O)c1ccc(O)cc1 [Example 53],6.24
17,O=C(NO)[C@@H](Cc1cocn1)N(Cc1cccnc1)S(=O)(=O)c1ccc(O)cc1 [Example 67],5.37
18,O=C(NO)[C@@H](Cc1cccs1)N(Cc1ccc(OCCF)cc1)S(=O)(=O)c1ccc(O)cc1 [Example 100],6.82
19,C[C@H](C(=O)NO)N(CCc1ccccc1)S(=O)(=O)c1ccc(O)cc1 [Example 105],7.05
20,CC(C)[C@@H](C(=O)NO)N(Cc1ccccc1)S(=O)(=O)c1cccc(C(F)(F)F)c1 [Example 69],3.16
21,COc1cccc(CN([C@H](Cc2cccs2)C(=O)NO)S(=O)(=O)c2ccc(O)cc2)c1 [Example 89],6.73
22,CCCC[C@H](C(=O)NO)N(Cc1cccnc1)S(=O)(=O)c1ccc(O)cc1 [Example 44],6.89

row,Structure (SMILES),pIC50
1,CC[C@H](C(=O)NO)N(Cc1cccnc1)S(=O)(=O)c1ccc(O)c(F)c1 [Example 58],6.29
2,CC[C@H](C(=O)NO)N(Cc1cccnc1)S(=O)(=O)CCNC(=O)CSC [Example 70],3.79
3,CC(C)C[C@H](C(=O)NO)N(Cc1cccnc1)S(=O)(=O)c1ccc(C(=N)N)cc1 [Example 52],4.56
4,"CC(C)C[C@H](C(=O)NO)N(Cc1cccnc1)S(=O)(=O)c1ccc(NS(C)(=O)=O)cc1 [Example 41, (R)—N-hydroxy-4-methyl-2-((4-(methylsulfonamido)-N-(pyridin-3-ylmethyl)phenyl)sulfonamido) pentanamide]",4.62
5,CC(C)C[C@H](C(=O)NO)N(Cc1cccnc1)S(=O)(=O)c1ccc(C#N)cc1 [Example 47],5.22
6,CC(=O)c1ccc(S(=O)(=O)N(Cc2cccnc2)[C@H](CC(C)C)C(=O)NO)cc1 [Example 38],5.21
7,CC(C)C[C@H](C(=O)NO)N(Cc1cccnc1)S(=O)(=O)c1ccc(-c2nnn[nH]2)cc1 [Example 51],< 3.70
8,"CC(C)C[C@H](C(=O)NO)N(Cc1cccnc1)S(=O)(=O)c1ccc(NC=O)cc1 [Example 49, (R)-2-((4-formamido-N-(pyridin-3-ylmethyl)phenyl)-sulfonamido)-N-hydroxy-4-methyl pentanamide]",5.09
9,CC(C)[C@@H](C(=O)NO)N(Cc1ccccc1)S(=O)(=O)c1ccc(O)c(F)c1 [Example 68],4.30
10,CC[C@H](C(=O)NO)N(Cc1cccnc1)S(=O)(=O)c1ccc(O)c(Cl)c1 [Example 59],5.37
11,Cc1ccc(CN([C@H](Cc2cccs2)C(=O)NO)S(=O)(=O)c2ccc(O)cc2)cc1 [Example 90],6.63
12,COCC[C@H](C(=O)NO)N(Cc1cccnc1)S(=O)(=O)c1ccc(O)cc1 [Example 54],6.40
13,CCOc1ccc(CN([C@H](Cc2cccs2)C(=O)NO)S(=O)(=O)c2ccc(O)cc2)cc1 [Example 81],6.25
14,COc1ccc(C(C(=O)NO)N(Cc2ccc3[nH]ccc3c2)S(=O)(=O)c2ccc(O)cc2)cc1 (stereo not shown) [Example 93],6.93
15,CC(C)CN(CC(=O)NO)S(=O)(=O)c1ccc(O)cc1 [Example 56],5.34
16,O=C(NO)[C@@H](CO)N(Cc1cccnc1)S(=O)(=O)c1ccc(O)cc1 [Example 50],6.29
17,COc1ccc(S(=O)(=O)N(Cc2cccnc2)[C@H](C(=O)NO)C(C)C)cc1 [Example 64],5.08
18,CCC(C)[C@H](C(=O)NO)N(Cc1cccnc1)S(=O)(=O)c1ccc(O)cc1 (stereo partly shown) [Example 36],6.62
19,CCC[C@@H](C(=O)NO)N(CCc1ccccn1)S(=O)(=O)c1ccc(O)cc1 [Example 78],6.67
20,COc1ccc(S(=O)(=O)N(Cc2cccnc2)CC(O)CSC(C)=O)cc1 (stereo not shown) [Example 75],< 4.00
21,CC(C)C[C@H](C(=O)NO)N(Cc1cccnc1)S(=O)(=O)c1ccc(C(N)=O)cc1 [Example 46],5.21
22,O=C(NO)[C@@H](Cc1cccs1)N(Cc1ccc(OC(F)F)cc1)S(=O)(=O)c1ccc(O)cc1 [Example 98],5.86

# Target: Gelatinase E (GelE) (Enterococcus faecalis (strain ATCC 700802 / V583), UniProt Q833V7)
# Assay: Gelatinase E activity assay (FRET peptide substrate)
# Assay type: biochemical
# Conditions: Table 11
# Description: Gelatinase E (Gel E) was purified from bacterial culture supernatant from E. faecalis. E. faecalis was cultured aerobically in Todd Hewitt Broth overnight at 37° C. Nucleic acid was precipitated with 0.9% protamine solution, followed by protein precipitation with ammonium sulfate. Resuspended protein pellet was further subjected to purification using FPLC (phenyl Sepharose column). Fractions with gelatinase activity as determined by casein agar assay were pooled and further concentrated.
# Different concentrations of test compound were incubated with purified GelE and FRET-based peptide substrate (390 MMP FRET Substrate 1; Anaspec AS-27077) in assay buffer at room temperature for 30 minutes. The fluorescence signal was determined by a plate reader.
# Sequence of Gelatinase E (GelE) (Q833V7 193-510 limits assumed): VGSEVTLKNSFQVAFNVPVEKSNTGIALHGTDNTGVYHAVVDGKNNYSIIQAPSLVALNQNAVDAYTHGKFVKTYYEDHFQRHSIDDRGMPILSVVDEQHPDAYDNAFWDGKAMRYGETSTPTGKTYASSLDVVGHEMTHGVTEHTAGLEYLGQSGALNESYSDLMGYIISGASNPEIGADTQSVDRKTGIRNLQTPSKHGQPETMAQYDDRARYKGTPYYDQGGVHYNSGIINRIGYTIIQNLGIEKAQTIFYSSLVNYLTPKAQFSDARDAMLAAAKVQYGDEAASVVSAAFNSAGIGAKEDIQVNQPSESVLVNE
row,Structure (SMILES),pIC50
1,CC(C)CN(CC(=O)NO)S(=O)(=O)c1ccc(OCC(=O)NCc2ccsc2)cc1 [AC],6.86
2,CC(C)CN(CC(=O)NO)S(=O)(=O)c1ccc(OCC(=O)NCc2ccccc2)cc1 [B],6.89
3,COc1ccc(S(=O)(=O)N(CC(=O)NO)Cc2ccccc2)cc1 [S],6.69
4,CC(C)CN(CC(=O)NO)S(=O)(=O)c1ccc(OCC(=O)NCc2ccc(C(F)(F)F)cc2)cc1 [AH],6.62
5,Cc1ccc(CNC(=O)COc2ccc(S(=O)(=O)N(CC(=O)NO)CC(C)C)cc2)cc1 [AD],6.81
6,CC(C)CN(CC(=O)NO)S(=O)(=O)c1ccc(OCC(=O)NCc2ccc(Cl)cc2)cc1 [AI],6.79
7,CC(C)CN(CC(=O)NO)S(=O)(=O)c1ccc(OCC(F)F)cc1 [X],6.74
8,CC(C)CN(CC(=O)NO)S(=O)(=O)c1ccc(OCC(=O)NC(C)c2ccccc2)cc1 (stereo not shown) [AR],6.63
9,Cc1cccc(CNC(=O)COc2ccc(S(=O)(=O)N(CC(=O)NO)CC(C)C)cc2)c1 [AK],< 5.00
10,CC(C)CN(CC(=O)NO)S(=O)(=O)c1ccc(OCCF)cc1 [Z],6.61
11,COc1ccc(-n2ccc(CCC(=O)NO)n2)cc1 [V],4.90
12,CC(C)CN(CC(=O)NO)S(=O)(=O)c1ccc(OCC(=O)NCc2ccccn2)cc1 [AP],6.75
13,COc1ccc(CNC(=O)COc2ccc(S(=O)(=O)N(CC(=O)NO)CC(C)C)cc2)cc1 [AE],6.81
14,CC(C)CN(CC(=O)NO)S(=O)(=O)c1ccc(OCCCF)cc1 [AB],5.62
